Source: article PMC3878761, “Interactions of peptide triazole thiols with Env gp120 induce irreversible breakdown and inactivation of HIV-1 virions” (Retrovirology, 2013)
Entries after “also recorded” stand apart in the source; their conditions may differ. Read-outs that look alike come from different tables or passages of the source.

Assays:
HIV-1 BaL pseudovirus [1] = experiment: gp120 shedding from HIV-1 BaL pseudovirus (western blot)
HIV-1 BaL pseudovirus [2] = experiment: p24 release from HIV-1 BaL pseudovirus (ELISA)
HIV-1 YU2 gp120 = target: T1, HIV-1 YU2 gp120 (Human immunodeficiency virus type 1 group M subtype B, UniProt P35961); experiment: SPR direct binding to immobilized YU2 gp120; conditions: immobilized YU2 gp120, PBS + 0.005% Tween 20, pH 7.2, 25°C
T1 construct: made in house; host or cells: 293F cells
Protocol: (Additional file 1: Figure S2). […] Direct binding of the peptide triazole to sensor chip immobilized HIV-1 YU2 gp120 was measured as previously described using Surface Plasmon Resonance (SPR) with a Biacore 3000 optical biosensor (GE Healthcare). […] The cell viability was measured using the tetrazolium salt premix reagent, WST-1 from Takara Bio Inc. following the manufacturer’s protocol. The formazan product was measured using the microplate reader at absorbance wavelength 460 nm (Molecular Devices).

[3] = tested on: pseudotype virions bearing the HIV-1 BaL envelope glycoprotein; conditions: determined by release of the p24 capsid protein; cited from earlier work
From the text: Since gp120 is the first viral protein to interact with the host cell, it is an attractive target for inhibiting infection. […] This inhibition is mediated by binding to a region of gp120 that partially overlaps the CD4 binding site.

[4] = tested on: gp41 of HIV-1 BaL pseudovirus (4E10 epitope); experiment: exposure of gp41 MPER epitope, 4E10 ELISA; conditions: fixed BaL pseudovirions, 30 min at 37°C (dose) or 1 μM (time), n = 3
Protocol: (§1) We also measured the presence of gp41 epitopes for human mAb’s 2 F5 and 4E10 using an altered ELISA detection method to minimize virus particle disruption. […] Virus fractions were collected and fixed with equal volume of 0.1% paraformaldehyde for 30 minutes at 4°C. The treated virus fractions were spun at 16,000 X g for 2 hours at 4°C in an Eppendorf table top centrifuge. Following PBS wash, fixed virions were coated on an ELISA plate at 50 μl per well and incubated overnight at 4°C. The plate was blocked with 3% BSA, and ELISA was used to detect gp41 epitopes with human gp41 antibodies 2 F5 and 4E10 followed by addition of anti-human IgG HRP secondary antibody.

[5] = tested on: fully infectious HIV-1 BaL virions; conditions: read-out: p24 release IC50 (*, fully infectious), 30 min at 37°C, p24 capture ELISA, ± SD
Protocol: (§2) The replication competent virions were assayed for peptide triazole-induced inhibition of infection, gp120 shedding and p24 release in a BSL-2 facility. Gradient purification of the viruses and p24 release assays were performed as with pseudoviruses (described in Materials and Methods above). Cell infection by virus and its inhibition by peptide triazoles were tested using a modified version of a previously reported p24 ELISA assay [60]. The p24 release assays as well as detection of gp120 shedding were conducted as with the BaL pseudovirions (described in Materials and Methods above).
(§3) Virions were purified using 6-20% iodixanol gradient and p24 content measured using ELISA. […] HOS CD4^+ve CCR5^+ve cells seeded, at 8,000 cells per well in a 96 well plate, were incubated for 24 hours followed by addition of pre-incubated inhibitor-virus mixture. […] Further, the peptide triazole and cell-free virus were pre-incubated for 30 min at 37°C followed by spinning for 2 hours at 13,600 rpm in a table top centrifuge (Eppendorf) at 4°C. Supernatant was separated and p24 content determined using the p24 capture ELISA (explained in the main Materials and Methods section) and gp120 using western blot analysis (explained in the Supplementary Text above).

[6] = tested on: R5-tropic and X4-tropic HIV-1; parameters: method as in 2 sources, one per row (each row's own in cited_ref): ref 7-9, 12 = [7]; PMID 20518583; doi:10.2165/11203940-000000000-00000; Perry CM Maraviroc: a review of its use in the management of CCR5-tropic HIV-1 infection Drugs 2010 10 9 1189 1213 10.2165/11203940-000000000-00000 20518583 || [8]; PMID 23541872; doi:10.1016/j.antiviral.2013.03.017; Haqqani AA Tilton JC Entry inhibitors and their use in the treatment of HIV-1 infection Antiviral Res 2013 10 2 158 170 10.1016/j.antiviral.2013.03.017 23541872 || [9]; PMID 23290628; doi:10.1016/j.coviro.2012.12.002; Henrich TJ Kuritzkes DR HIV-1 entry inhibitors: recent development and clinical use Curr Opin Virol 2013 10 1 51 57 10.1016/j.coviro.2012.12.002 23290628 PMC4213740 || [12]; PMID 17933722; Emmelkamp JM Rockstroh JK CCR5 antagonists: comparison of efficacy, side effects, pharmacokinetics and interactions–review of the literature Eur J Med Res 2007 10 9 409 417 17933722 ||| ref 34 = [34]; PMID 23470147; doi:10.1021/bi400166b; Emileh A Tuzer F Yeh H Umashankara M Moreira DR Lalonde JM Bewley CA Abrams CF Chaiken IM A model of peptide triazole entry inhibitor binding to HIV-1 gp120 and the mechanism of bridging sheet disrupt; conditions: cited from earlier work
[7] = tested on: fully infectious HIV-1 BaL virions; experiment: gp120 shedding from fully infectious HIV-1 BaL; conditions: read-out: gp120 shedding IC50 (*, fully infectious), 30 min at 37°C, western blot, ± SD
Protocol: as §2, §3

[8] = tested on: CHO-K1 cells expressing gp160; experiment: gp120 shedding and lysis, CHO-K1 cells expressing gp160; assay type: cell-based; conditions: unpublished results, manuscript in preparation
[9] = tested on: gp41 of HIV-1 BaL pseudovirus (2 F5 epitope); experiment: exposure of gp41 MPER epitope, 2 F5 ELISA; conditions: fixed BaL pseudovirions, 30 min at 37°C (dose) or 1 μM (time), n = 3
Protocol: as §1

HIV-1 BaL pseudovirus [10] = experiment: TEM morphology of treated virions; conditions: KR13 1 μM, 24 hours
HIV-1 BaL pseudovirus [11] = tested on: HIV-1 BaL pseudovirus
[12] = tested on: gp41 of HIV-1 BaL pseudovirus (98–6 epitope); experiment: gp41 content of treated virions, mAb 98-6 western blot; conditions: western blot mAb 98–6, BaL pseudovirus
[13] = KR13 (1 μM), 30 minutes exposure, n = 3
[14] = KR13 1 μM or HNG156 100 μM, 1 min to 24 hours, 37°C

For `CC[C@H](C)[C@H](NC(=O)[C@@H](N)CCCNC(=N)N)C(=O)N[C@@H](CC(N)=O)C(=O)N[C@@H](CC(N)=O)C(=O)N[C@H](C(=O)N1C[C@@H](n2cc([C]34[CH]5[CH]6[CH]7[CH]3[Fe]6754389%10[CH]4[CH]3[CH]8[CH]9[CH]4%10)nn2)C[C@H]1C(=O)N[C@@H](Cc1c[nH]c2ccccc12)C(=O)N[C@@H](CO)C(=O)N[C@@H](CCC(=O)O)C(=O)N[C@@H](C)C(=O)N[C@@H](CCSC)C(=O)N[C@@H](CCSC)C(=O)NCCC(=O)N[C@@H](CCC(N)=O)C(=O)NCCC(=O)N[C@@H](CS)C(N)=O)[C@@H](C)CC` (stereo partly drawn) [KR13], which “gp120 shedding, in words” value (HIV-1 BaL pseudovirus [1]) is on record?
Its value is “caused gp120 shedding”.

What about the “loss of gp120” value (HIV-1 BaL pseudovirus [1]; [13]) of the same molecule?
Its value is 65-70%.

What about the “kinetics of p24 release” value (HIV-1 BaL pseudovirus [2]; [14]) of the same molecule?
The value was “delayed kinetically”.

What about the “loss of p24” value (HIV-1 BaL pseudovirus [2]; [13]) of the same molecule?
The value was 10%.

And the “reduction in virion p24 content” value (HIV-1 BaL pseudovirus [2]; KR13 (1 μM), 360 minutes)?
Its value is 50%.

And the IC50 (HIV-1 BaL pseudovirus [2]; read-out: p24 release IC50, 30 minutes, gradient fractionation, capture ELISA, 1% triton X = 100%, ± SD, n > 3)?
Its IC50 is 32 ± 10 nM.

And the “SPR direct binding to gp120, in words” value (HIV-1 YU2 gp120)?
The value was “proportionally increasing binding responses to immobilized gp120 at increasing concentrations of KR13”.

What about the “lysis of BaL pseudotype virions” value [3] of the same molecule?
The value was “induced lysis of pseudotype virions bearing the HIV-1 BaL envelope glycoprotein”.

What about the “reactivity to 4E10” value [4] of the same molecule?
The value was “reactivity to 4E10 and 2 F5 increased in a dose-dependent manner; also recorded: time dependent exposure of the MPER epitope”.

And the IC50 [5]?
The IC50 was 4400 nM.

What about the “inhibition of R5- and X4-tropic viruses” value [6] of the same molecule?
Its value is “potent inhibitor of R5- and X4-tropic viruses”.

And the IC50 [7]?
Its IC50 is 1200 nM.

What about the “gp120 shedding, CHO-K1 cells expressing gp160” value [8] of the same molecule?
The value was “caused gp120 shedding”.

What about the “lysis of CHO-K1 cells expressing gp160” value [8] of the same molecule?
Its value is “did not lyse the cells”.

And the “reactivity to 2 F5” value [9]?
Its value is “reactivity to 4E10 and 2 F5 increased in a dose-dependent manner; also recorded: time dependent exposure of the MPER epitope”.

And the “core morphology of virions” value (HIV-1 BaL pseudovirus [10])?
The value was “substantially different, with a shriveled and disordered appearance”.

And the “reduction of virion diameter” value (HIV-1 BaL pseudovirus [10]; 37°C, n = 16)?
The value was over 50%.

And the “kinetics of infectivity inhibition versus gp120 shedding” value (HIV-1 BaL pseudovirus [11]; [14])?
Its value is “infectivity inhibition and gp120 shedding had similar kinetics”.

And the loss of infectivity (HIV-1 BaL pseudovirus [11]; [13])?
The loss of infectivity was 65-70%.

What about the “inhibition of infection, in words” value (HIV-1 BaL pseudovirus [11]; single round infection assay) of the same molecule?
Its value is “inhibited infection”.

What about the “gp41 retention / 98–6 detection” value [12] of the same molecule?
The value was “gp41 remained associated with virions; also recorded: gp41 was detected only weakly by 98–6 in either soluble or virion-associated fractions”.
